Assay results as given in ChEMBL document CHEMBL3244218, “beta-Adrenergic blocking agents with acute antihypertensive activity” (1979).

What was measured:
Canis familiaris [1] = species on record: Canis familiaris; assay: Peripheral vasodilating activity in mongrel dog assessed as increase in iliac blood flow at 1600 ug, ia; assay type: functional, Canis lupus familiaris, Artery
Canis familiaris [2] = assay: In-vivo beta-adrenergic blocking activity in iv dosed mongrel dog assessed as blockade of isoproterenol-induced hypotension by measuring mean arterial pressure; assay type: functional; details: Canis lupus familiaris, Artery
Canis familiaris [3] = assay: Peripheral vasodilating activity in mongrel dog assessed as increase in iliac blood flow at 1600 ug, ia in presence of isoproterenol and 2000 ug/kg timolol; assay type: functional, Canis lupus familiaris, Artery
Rattus norvegicus [4] = assay: Antihypertensive activity in spontaneously hypertensive rat assessed as maximum fall in mean arterial pressure at 20 mg/kg, po; assay type: functional, Artery
Rattus norvegicus [5] = assay: Antihypertensive activity in spontaneously hypertensive rat assessed as maximum fall in mean arterial pressure at 1.25 mg/kg, po; assay type: functional, Artery
Canis familiaris [6] = assay: In-vivo beta-adrenergic blocking activity in iv dosed mongrel dog assessed as blockade of isoproterenol-induced tachycardia by measuring heart rate; assay type: functional; details: Canis lupus familiaris
Canis familiaris [7] = assay: In-vivo beta-adrenergic blocking activity in iv dosed mongrel dog assessed as blockade of isoproterenol-induced bronchodilation by measuring pulmonary pressure; assay type: functional; details: Canis lupus familiaris
Rattus norvegicus [8] = assay: Antihypertensive activity in spontaneously hypertensive rat assessed as maximum fall in mean arterial pressure at 5 mg/kg, po; assay type: functional, Artery
Rattus norvegicus [9] = assay: Antihypertensive activity in spontaneously hypertensive rat assessed as maximum fall in mean arterial pressure at 0.312 mg/kg, po; assay type: functional, Artery
Canis familiaris [10] = assay: Peripheral vasodilating activity in mongrel dog assessed as increase in iliac blood flow at 1600 ug, ia in presence of isoproterenol and 1000 ug/kg timolol; assay type: functional, Canis lupus familiaris, Artery
Canis familiaris [11] = assay: Peripheral vasodilating activity in mongrel dog assessed as increase in iliac blood flow at 8 ug, ia in presence of isoproterenol and 2000 ug/kg timolol; assay type: functional, Canis lupus familiaris, Artery
Canis familiaris [12] = assay: Peripheral vasodilating activity in mongrel dog assessed as increase in iliac blood flow at 32 ug, ia in presence of isoproterenol and 2000 ug/kg timolol; assay type: functional, Canis lupus familiaris, Artery
Canis familiaris [13] = assay: Peripheral vasodilating activity in mongrel dog assessed as increase in iliac blood flow at 16 ug, ia in presence of isoproterenol and 2000 ug/kg timolol; assay type: functional, Canis lupus familiaris, Artery
Canis familiaris [14] = species on record: Canis familiaris; assay: Peripheral vasodilating activity in mongrel dog assessed as increase in iliac blood flow at 8 ug, ia; assay type: functional, Canis lupus familiaris, Artery
Canis familiaris [15] = species on record: Canis familiaris; assay: Peripheral vasodilating activity in mongrel dog assessed as increase in iliac blood flow at 32 ug, ia; assay type: functional, Canis lupus familiaris, Artery
Canis familiaris [16] = species on record: Canis familiaris; assay: Peripheral vasodilating activity in mongrel dog assessed as increase in iliac blood flow at 16 ug, ia; assay type: functional, Canis lupus familiaris, Artery
Canis familiaris [17] = assay: Peripheral vasodilating activity in mongrel dog assessed as increase in iliac blood flow at 1600 ug, ia in presence of isoproterenol and 500 ug/kg timolol; assay type: functional, Canis lupus familiaris, Artery
Canis familiaris [18] = species on record: Canis familiaris; assay: Peripheral vasodilating activity in mongrel dog assessed as increase in iliac blood flow at 250 ug, ia; assay type: functional, Canis lupus familiaris, Artery

SMILES	Activity (Canis familiaris [1]) [mL/min]	ED50 (Canis familiaris [2]) [mg/kg]	Activity (Canis familiaris [3]) [mL/min]	Activity (Rattus norvegicus [4]) [mmHg]	Activity (Rattus norvegicus [5]) [mmHg]	ED50 (Canis familiaris [6]) [mg/kg]	ED50 (Canis familiaris [7]) [mg/kg]	Activity (Rattus norvegicus [8]) [mmHg]	Activity (Rattus norvegicus [9]) [mmHg]	Activity (Canis familiaris [10]) [mL/min]	Activity (Canis familiaris [11]) [mL/min]	Activity (Canis familiaris [12]) [mL/min]	Activity (Canis familiaris [13]) [mL/min]	Activity (Canis familiaris [14]) [mL/min]	Activity (Canis familiaris [15]) [mL/min]	Activity (Canis familiaris [16]) [mL/min]	Activity (Canis familiaris [17]) [mL/min]	Activity (Canis familiaris [18]) [mL/min]
CC(C)(C)NC[C@H](O)COc1ccc(-c2ncc[nH]2)cc1	30	> 1	0	41	19	0.067	–	–	–	–	–	–	–	–	–	–	–	–
COc1ccc(-c2cnc(-c3ccc(OC[C@@H](O)CNC(C)(C)C)cc3)[nH]2)cc1.O=C(O)/C=C\C(=O)O	26	0.525	16	39	10	0.027	0.48	28	–	–	–	–	–	–	–	–	–	–
Cc1cnc(-c2ccc(OC[C@@H](O)CNC(C)(C)C)cc2)[nH]1.O=C(O)/C=C\C(=O)O	59	1	32	41	24	0.03	0.277	19	–	–	–	–	–	–	–	–	–	–
CC(C)(C)NC[C@H](O)COc1ccc(-c2ncc(-c3cccs3)[nH]2)cc1.O=C(O)/C=C\C(=O)O	23	0.234	15	–	20	0.014	0.433	33	9	–	–	–	–	–	–	–	–	–
Cc1cc(OC[C@@H](O)CNC(C)(C)C)ccc1-c1ncc(C(F)(F)F)[nH]1	36	0.0927	–	–	36	0.0157	0.0364	51	–	39	–	–	–	–	–	–	–	–
CC(C)(C)NCC(O)COc1ccc(-c2nc(C(F)(F)F)c[nH]2)cc1 (racemic)	79	0.042	15	–	36	0.0076	0.071	49	21	–	10	15	17	52	63	58	–	–
CC(C)(C)NCC(O)COc1ccc(-c2ncc[nH]2)cc1 (racemic)	36	> 1	–	18	–	0.098	> 1	–	–	–	–	–	–	–	–	–	31	–
CC(C)(C)NCC(O)COc1ccc(-c2ncc(C(F)(F)F)[nH]2)c(Cl)c1 (racemic)	2	0.552	–	–	28	0.027	0.054	36	–	–	–	–	–	–	–	–	–	-2
CC(C)(C)NCC(O)COc1ccc(-c2ncc(-c3ccccc3)[nH]2)cc1 (racemic)	46	0.083	42	54	20	0.035	0.095	30	–	–	–	–	–	–	–	–	–	–
Cc1cc(OCC(O)CNC(C)(C)C)cc(C)c1-c1ncc(C(F)(F)F)[nH]1 (racemic)	5	> 1	–	30	31	0.091	0.163	20	–	10	–	–	–	–	–	–	–	–
COc1ccc(-c2cnc(-c3ccc(OCC(O)CNC(C)(C)C)cc3)[nH]2)cc1 (racemic)	25	> 1	20	–	21	0.04	–	29	12	–	–	–	–	–	–	–	–	–
CC(C)(C)NCC(O)COc1ccc(-c2ncc(-c3ccc(Cl)cc3)[nH]2)cc1 (racemic)	–	0.137	–	32	32	0.0562	0.0827	35	–	–	–	–	–	–	–	–	–	–
CC(C)(C)NCC(O)COc1ccc(-c2ncc(-c3ccc(F)cc3)[nH]2)cc1 (racemic)	42	0.139	32	13	–	0.019	–	–	–	–	–	–	–	–	–	–	–	–
CC(C)(C)NCC(O)COc1ccc(-c2ncc(-c3ccc(Cl)c(Cl)c3)[nH]2)cc1 (racemic)	56	0.117	15	49	36	0.123	0.097	35	–	–	–	–	–	–	–	–	–	–
CC(C)(C)NCC(O)COc1ccc(-c2ncc(-c3c(F)c(F)c(F)c(F)c3F)[nH]2)cc1 (racemic)	56	0.3	48	40	21	0.082	–	19	–	–	–	–	–	–	–	–	–	–
CC(C)(C)NCC(O)COc1ccc(-c2ncc(-c3ccco3)[nH]2)cc1 (racemic)	80	0.3	40	35	–	0.015	–	–	–	–	–	–	–	–	–	–	–	–

SMILES	Activity (Canis familiaris [1]) [mL/min]	ED50 (Canis familiaris [2]) [mg/kg]	Activity (Canis familiaris [3]) [mL/min]	Activity (Rattus norvegicus [4]) [mmHg]	Activity (Rattus norvegicus [5]) [mmHg]	ED50 (Canis familiaris [6]) [mg/kg]	ED50 (Canis familiaris [7]) [mg/kg]	Activity (Rattus norvegicus [8]) [mmHg]	Activity (Rattus norvegicus [9]) [mmHg]	Activity (Canis familiaris [10]) [mL/min]	Activity (Canis familiaris [11]) [mL/min]	Activity (Canis familiaris [12]) [mL/min]	Activity (Canis familiaris [13]) [mL/min]	Activity (Canis familiaris [14]) [mL/min]	Activity (Canis familiaris [15]) [mL/min]	Activity (Canis familiaris [16]) [mL/min]	Activity (Canis familiaris [17]) [mL/min]	Activity (Canis familiaris [18]) [mL/min]
CC(C)(C)NCC(O)COc1ccc(-c2ncc(-c3ccccn3)[nH]2)cc1 (racemic)	–	–	–	40	6	–	–	27	–	–	–	–	–	–	–	–	–	–
CC(C)(C)NCC(O)COc1ccc(-c2ncc(-c3cccnc3)[nH]2)cc1 (racemic)	64	> 1	40	13	–	0.054	–	28	–	–	–	–	–	–	–	–	–	–
COC(=O)c1cnc(-c2ccc(OCC(O)CNC(C)(C)C)cc2)[nH]1 (racemic)	80	> 1	29	36	–	0.04	–	17	–	–	–	–	–	–	–	–	–	–
CC(C)(C)NCC(O)COc1ccc(-c2ncc(C(N)=O)[nH]2)cc1 (racemic)	–	> 1	–	14	–	0.262	> 1	–	–	–	–	–	–	–	–	–	–	–
CC(C)(C)NCC(O)COc1cc(Cl)c(-c2ncc(C(F)(F)F)[nH]2)c(Cl)c1 (racemic)	–	–	–	–	16	–	–	30	–	–	–	–	–	–	–	–	–	–
CC(C)(C)NCC(O)COc1ccc(-c2ncc(C(F)(F)F)[nH]2)c(Cl)c1Cl (racemic)	–	–	–	49	–	–	–	16	–	–	–	–	–	–	–	–	–	–
CC(C)(C)NCC(O)COc1ccc(-c2ncc(C(F)(F)F)[nH]2)cc1Cl (racemic)	17	0.017	–	6	–	0.016	0.015	5	–	–	–	–	–	–	–	–	–	5
Cc1cc(OCC(O)CNC(C)(C)C)ccc1-c1ncc(C(F)(F)F)[nH]1 (racemic)	27	0.361	–	44	32	0.0227	0.0298	43	–	–	–	–	–	–	–	–	–	11
Cc1c(OCC(O)CNC(C)(C)C)ccc(-c2ncc(C(F)(F)F)[nH]2)c1C (racemic)	23	0.582	–	30	27	0.071	0.055	24	–	19	–	–	–	–	–	–	–	–
Cc1cc(-c2ncc(C(F)(F)F)[nH]2)ccc1OCC(O)CNC(C)(C)C (racemic)	52	0.022	–	–	23	0.011	–	36	–	20	–	–	–	–	–	–	–	6
CC(C)(C)NCC(O)COc1ccc(-c2ncc(C(F)(F)F)[nH]2)c2c1CCCC2 (racemic)	-15	0.167	–	22	–	0.228	0.1	–	–	-10	–	–	–	–	–	–	–	–
CC(C)(C)NCC(O)COc1ccc(-c2ncc(C(F)(F)F)[nH]2)c2ccccc12 (racemic)	35	> 1	–	40	–	0.186	–	21	–	40	–	–	–	–	–	–	–	–
CC(C)(C)NCC(O)COc1ccc(-c2nc(-c3cccs3)c[nH]2)cc1 (racemic)	28	0.635	10	58	36	0.016	–	35	12	–	–	–	–	–	–	–	–	–
Cc1c[nH]c(-c2ccc(OCC(O)CNC(C)(C)C)cc2)n1 (racemic)	101	> 1	62	27	–	0.106	–	6	–	–	–	–	–	–	–	–	75	–
NNc1nncc2ccccc12 [HYDRALAZINE]	66	–	–	–	–	–	–	–	–	–	–	–	–	–	–	–	–	–
CC(=O)Nc1ccc(OCC(O)CNC(C)C)cc1 (configuration not stated) [PRACTOLOL]	–	1	–	–	–	0.115	1.08	–	–	–	–	–	–	–	–	–	–	–
